Source: US20230183243A1, “HETEROARYL DERIVATIVES AND PHARMACEUTICAL COMPOSITION COMPRISING SAME AS ACTIVE INGREDIENT” (VORONOI INC., priority 2019, published 2023)
Like-named read-outs stand apart in the source and are kept apart here.

What was measured:
DU145 = test: Cell proliferation inhibition, carcinomas other than TNBC; format: cell-based
Description: (§1) To check an ability to inhibit the growth of (MDA-MB-231) cells in two triple-negative breast cancer cell lines, a test was performed, as follows. Cells were seeded in 180 μL of a culture broth at a density of 2,000 to 3,000 cells/well in a white clear bottom 96-well plate (Corning) according to the growth ability of each cell, and then cultured for 24 hours under conditions of 5% CO2 and 37° C. Thereafter, the compound was prepared by diluting a 10 mM stock solution three-fold with 100% DMSO at a total of 12 concentrations so that a peak concentration of the compound was in a range of 10 mM to 0.05 μM, and the diluted compound was then diluted in each cell culture medium so that a final concentration of the compound was in a range of 100 μM to 0.5 nM. 20 μL of a diluted solution diluted with a medium was added to the cell solution in which cells were seeded in the 96-well plate on the previous day so that a final concentration of the diluted solution was in a range of 10 μM to 0.05 nM. Each of the cells was cultured for 5 days. To check cell viability, a mixture provided in a CellTiter-Glo® Luminescent Cell Viability Assay Kit (Promega) was added to each of the cultured cell media, and cultured for another 10 minutes under a condition of 37° C. Then, a degree of luminescence (fluorescence) was measured. A degree of inhibition of the cell growth according to the treatment concentration of each of the compounds was calculated based on the fluorescence of the solvent control cells which were not treated with the compound. In this case, the concentration of each of the compounds inhibiting 50% of the cell growth was determined to be a GI50 (nM) value, and calculated using Prism (Version 7.01; GraphPad) software.
(§2) Next, the activities of the Example compounds against various types of carcinomas other than the TNBC were evaluated in a similar manner as described above. In the following table, the following active value range (GI50 (nM)) was used to evaluate cell proliferation inhibitory activity.

HCT116 = test: as above; format: cell-based
Description: as §1, §2

BxPC3 = test: as above; format: cell-based
Description: as §1, §2

A549 = test: as above; format: cell-based
Description: as §1, §2

TTK = biological target: T1, TTK (Homo sapiens, UniProt P33981); test: TTK enzyme activity, ADP-Glo kinase assay; format: biochemical; design: purchased SignalChem T20-10G; conditions: purified human TTK, ATP 10 μM, 25° C., 2 hours
T1 sequence (P33981 1-857): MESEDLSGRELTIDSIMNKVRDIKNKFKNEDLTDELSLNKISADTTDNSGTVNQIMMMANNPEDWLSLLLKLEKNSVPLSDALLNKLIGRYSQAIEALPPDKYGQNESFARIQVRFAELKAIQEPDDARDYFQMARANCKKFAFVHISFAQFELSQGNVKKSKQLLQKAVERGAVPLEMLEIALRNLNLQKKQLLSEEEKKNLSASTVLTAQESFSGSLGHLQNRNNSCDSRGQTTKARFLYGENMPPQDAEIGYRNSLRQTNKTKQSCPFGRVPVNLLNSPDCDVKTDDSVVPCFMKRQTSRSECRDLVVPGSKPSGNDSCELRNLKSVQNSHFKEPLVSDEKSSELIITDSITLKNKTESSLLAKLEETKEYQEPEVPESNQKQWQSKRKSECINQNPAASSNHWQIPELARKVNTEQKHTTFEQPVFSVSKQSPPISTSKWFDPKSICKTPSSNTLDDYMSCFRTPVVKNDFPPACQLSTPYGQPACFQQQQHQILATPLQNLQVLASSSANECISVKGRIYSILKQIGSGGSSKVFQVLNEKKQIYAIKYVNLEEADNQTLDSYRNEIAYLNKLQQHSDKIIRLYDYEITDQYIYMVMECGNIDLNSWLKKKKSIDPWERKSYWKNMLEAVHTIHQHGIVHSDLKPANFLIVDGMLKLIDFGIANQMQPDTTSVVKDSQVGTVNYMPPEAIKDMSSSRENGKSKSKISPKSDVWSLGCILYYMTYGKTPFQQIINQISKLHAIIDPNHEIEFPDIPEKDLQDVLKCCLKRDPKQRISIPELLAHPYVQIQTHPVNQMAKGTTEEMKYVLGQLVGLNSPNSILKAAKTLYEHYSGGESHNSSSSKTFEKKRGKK
Summary of the method: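 Purified human TTK (25 ng) incubated with 10 μM ATP and substrate (0.2 μg) for 2 h at 25 °C in Tris-HCl pH 7.4, MgCl2, BSA, DTT buffer. ADP formation read by ADP-Glo; inhibition calculated against untreated solvent control.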

MDA-MB-231 cells = test: Inhibition of proliferation of triple-negative breast cancer cells, CellTiter-Glo; format: cell-based; conditions: Homo sapiens, 120 h; MDA-MB-231, cultured for 5 days
Summary of the method: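 MDA-MB-231 cells pre-cultured 24 h (5% CO2, 37 °C), then exposed to compound for 5 days at 12 three-fold dilutions, final 10 μM to 0.05 nM. Viability read by CellTiter-Glo luminescence after 10 min at 37 °C; growth inhibition calculated relative to untreated solvent-control cells.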

SHP-77 = test: Inhibition of proliferation of small cell lung cancer cells, CellTiter-Glo; format: cell-based; conditions: Homo sapiens, SHP77, 120 h; SHP-77, cultured for 5 days
Summary of the method: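 SHP-77 cells at 2,000–3,000 cells/well, cultured 24 h at 37° C, 5% CO2, then given 12 threefold compound dilutions, final 10 μM to 0.05 nM, for 5 days. Viability by CellTiter-Glo luminescence relative to solvent control. GI50 from concentration–response.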

| GI50 (DU145; Homo sapiens, DU-145) [µM] | GI50 (HCT116; Homo sapiens, HCT-116) [µM] | GI50 (BxPC3; Homo sapiens, BXPC-3) [µM] | GI50 (A549; Homo sapiens) [µM] | GI50 (DU145; DU145) [µM] | GI50 (HCT116; HCT116) [µM] | GI50 (BxPC3; BxPC3) [µM] | GI50 (A549) [µM] | IC50 (TTK) [µM] | GI50 (MDA-MB-231 cells) [µM] | GI50 (SHP-77) [µM] | SMILES |
| --- | --- | --- | --- | --- | --- | --- | --- | --- | --- | --- | --- |
| < 0.1 | < 0.1 | < 0.1 | < 0.1 |  |  |  |  |  |  |  | COc1cc(N2CCCC2=O)ccc1Nc1nc(NC2CCCC2)c2cc[nH]c2n1 [Example 47, 1-(4-((4-(cyclopentylamino)-7H-pyrrolo[2,3-d]pyrimidin-2-yl)amino)-3-methoxyphenyl) pyrrolidin-2-one] |
|  |  |  |  | < 0.1 | < 0.1 | < 0.1 | < 0.1 |  |  |  | COc1cc(N2CCCC2=O)ccc1Nc1nc(NC2CCCCC2)c2cc[nH]c2n1 [Example 48] |
| 0.1 to 1 | 0.1 to 1 | 0.1 to 1 | 0.1 to 1 |  |  |  |  |  |  |  | COc1cc(N2CCCC2=O)ccc1Nc1nc(NC2CCCC2)c2c(C(F)(F)F)c[nH]c2n1 [Example 52] |
| 0.1 to 1 | 0.1 to 1 | 0.1 to 1 | 0.1 to 1 |  |  |  |  | < 0.05 | 0.1 to 1 |  | COc1cc(N2CCCC2=O)ccc1Nc1nc(NC2CCCCC2)c2c(C(F)(F)F)c[nH]c2n1 [Example 53, 1-(4-((4-(cyclohexylamino)-5-(trifluoromethy1)-7H-pyrrolo[2,3-d]pyrimidin-2-yl)amino)-3-methoxyphenyl) pyrrolidin-2-one] |
| 0.1 to 1 | 0.1 to 1 | 0.1 to 1 | 0.1 to 1 |  |  |  |  | 0.05 to 0.2 | 0.1 to 1 |  | CNc1nc(Nc2ccc(N3CCCC3=O)cc2OC)nc2[nH]cc(C#N)c12 [Example 54, 2-((2-methoxy-4-(2-oxopyrrolidin-1-yl)phenyl)amino)-4-(methylamino)-7H-pyrrolo[2,3-d] pyrimidine-5-carbonitrile] |
| < 0.1 | < 0.1 | < 0.1 | < 0.1 |  |  |  |  | < 0.05 | < 0.1 |  | COc1cc(N2CCCC2=O)ccc1Nc1nc(NC2CCCC2)c2c(C#N)c[nH]c2n1 [Example 55, 4-(cyclopentylamino)-2-((2-methoxy-4-(2-oxopyrrolidin-1-yl)phenyl)amino)-7H-pyrrolo[2,3-d] pyrimidine-5-carbonitrile] |
| < 0.1 | < 0.1 | < 0.1 | < 0.1 |  |  |  |  | < 0.05 | < 0.1 | < 0.1 | COc1cc(N2CCCC2=O)ccc1Nc1nc(NC2CCCCC2)c2c(C#N)c[nH]c2n1 [Example 56, 4-(cyclohexylamino)-2-((2-methoxy-4-(2-oxopyrrolidin-1-yl)phenyl)amino)-7H-pyrrolo[2,3-d] pyrimidine-5-carbonitrile] |
| 0.1 to 1 | 0.1 to 1 | 0.1 to 1 | 0.1 to 1 |  |  |  |  |  |  |  | COc1cc(N2CCCC2=O)ccc1Nc1cc(NC2CCCCC2)c2c(C(F)(F)F)c[nH]c2n1 [Example 62, 1-(4-((4-(cyclohexylamino)-3-(trifluoromethyl)-1H-pyrrolo[2,3-b]pyridin-6-yl)amino)-3-methoxyphenyl) pyrrolidin-2-one] |
| < 0.1 | < 0.1 | < 0.1 | < 0.1 |  |  |  |  | < 0.05 | 0.1 to 1 |  | COc1cc(N2CCCC2=O)ccc1Nc1cc(NC2CCCC2)c2c(C#N)c[nH]c2n1 [Example 63, 4-(cyclopentylamino)-6-((2-methoxy-4-(2-oxopyrrolidin-1-yl)phenyl)amino)-1H-pyrrolo[2,3-b] pyridine-3-carbonitrile] |
|  |  |  |  |  |  |  |  | < 0.05 | 0.1 to 1 | < 0.1 | N#Cc1c[nH]c2nc(Nc3ccc(N4CCCS4(=O)=O)c(F)c3)nc(NC3CCCC3)c12 [Example 173, 4-(cyclopentylamino)-2-((4-(1,1-dioxidoisothiazolidin-2-yl)-3-fluorophenyl)amino)-7H-pyrrolo[2,3-d] pyrimidine-5-carbonitrile] |
|  |  |  |  |  |  |  |  | < 0.05 | < 0.1 | < 0.1 | COc1cc(N2CCCS2(=O)=O)ccc1Nc1nc(NC2CCOCC2)c2c(C(F)(F)F)c[nH]c2n1 [Example 174, 2-(3-methoxy-4-((4-((tetrahydro-2H-pyran-4-yl)amino)-5-(trifluoromethyl)-7H-pyrrolo[2,3-d]pyrimidin-2-yl)amino)phenyl)isot hiazolidine 1,1-dioxide] |
|  |  |  |  |  |  |  |  | < 0.05 | < 0.1 | < 0.1 | COc1cc(N2CCCCS2(=O)=O)ccc1Nc1nc(NC2CCOCC2)c2c(C(F)(F)F)c[nH]c2n1 [Example 175, 2-(3-methoxy-4-((4-((tetrahydro-2H-pyran-4-yl)amino)-5-(trifluoromethyl)-7H-pyrrolo[2,3-d]pyrimidin-2-yl)amino)phenyl)-1,2-thiazinane 1,1-dioxide] |
|  |  |  |  |  |  |  |  | 0.05 to 0.2 | 0.1 to 1 | 0.1 to 1 | COc1cc(N2CCCS2(=O)=O)ccc1Nc1nc(NC2CCCC2)c2c(C(F)(F)F)c[nH]c2n1 [Example 176, 2-(4-((4-(cyclopentylamino)-5-(trifluoromethyl)-7H-pyrrolo[2,3-d]pyrimidin-2-yl)amino)-3-methoxyphenyl) isothiazolidine 1,1-dioxide] |
|  |  |  |  |  |  |  |  | 0.05 to 0.2 | 0.1 to 1 | 0.1 to 1 | COc1cc(N2CCCCS2(=O)=O)ccc1Nc1nc(NC2CCCC2)c2c(C(F)(F)F)c[nH]c2n1 [Example 177, 2-(4-((4-(cyclopentylamino)-5-(trifluoromethyl)-7H-pyrrolo[2,3-d]pyrimidin-2-yl)amino)-3-methoxyphenyl)-1,2-thiazinane 1,1-dioxide] |
